For 89 compounds, melting point results are on record in a melting point compilation (Tetko et al.; mined from patent text by program, amines drawn as free bases though some values may be those of a salt).

As to `CC(=O)N(c1cccc(C(=O)O)c1)c1cc(C(C)(C)C)c(O)c(C(C)(C)C)c1`, the melting point (in general, the temperature, or range, at which the solid turns liquid) lay within 204 to 206 °C.

In the case of `O=C1c2sccc2-n2cnc(-c3noc(CCl)n3)c2[C@@H]2CCN12`, the melting point fell in the range of 210 to 213 °C.

`CN(C)c1ccccc1CSc1nccc(=O)[nH]1` came in with a melting point of 156 to 158 °C.

Consider `C[C@H]1CN(c2ccc([N+](=O)[O-])cc2)[C@@H](C)CN1` (relative stereo), for which the melting point fell in the range of 93 to 94 °C.

`CCCCCCCCCCCCSC1C(=O)N(c2c(Cl)cc(Cl)cc2Cl)N=C1Nc1cc(OC)c(Cl)cc1Cl` (centres undefined) showed a melting point of 100 to 102 °C.

`CC(=O)NCC1CN(c2ccc(N3CCN(c4nnc(C(N)=O)s4)C(F)C3)cc2)C(=O)O1` (centres undefined): the melting point was in the range of 230 to 232 °C.

Regarding `COc1ccc2sc(C(=O)Nc3ccc(S(=O)(=O)OC)cc3)c(OC(C)C)c2c1`, the melting point was 176 to 177 °C.

`COc1cc(OC)c(-c2cccs2)cc1C#CC(=O)c1ccc(C(=O)O)cc1`: the melting point is 220 °C.

For the compound `COc1ccc(CN2CC=C(c3cc4ccccc4s3)CC2)cc1`, the melting point lay within 158 to 160 °C.

As for `NS(=O)(=O)c1ccc(-c2cn(-c3nc(-c4ccc(F)cc4)cc(C(F)(F)F)n3)cn2)s1`, the melting point is 244 °C.

For `OC1CSC(Oc2cncc(-c3cncnc3)c2)C(O)C1O` (centres undefined), the melting point was determined as 196 °C.

The compound `O=C(O)CCc1cn(Cc2ccc(OCc3csc(-c4cnccn4)n3)cc2)cc1-c1ccccc1` displayed a melting point of 137 to 138 °C.

`O=CC(=O)c1ccc(OCCc2ccccc2)cc1` returned a melting point of 44 to 59 °C.

Compound `COc1ccc([N+](=O)[O-])cc1NC(=O)CC(=O)C1(C)COC(C)(C)OC1` registered a melting point of 113 to 115 °C.

Regarding `O=C(O)CC1=Cc2ccccc2C1`, the melting point lay within 114 to 115 °C.

With `COc1cccc(-c2nn(Cc3oc4ccccc4c(=O)c3-c3ccccc3)c3ncnc(N)c23)c1`, the melting point fell in the range of 111 to 115 °C.

`CCCCCCCCCCCCc1nnn(C(CCCCCCCCCCCC)C(=O)Nc2c(OC)cc(OC)cc2OC)n1` (centres undefined) gave a melting point of 138 to 140 °C.

For the compound `CCc1ccc2c(c1)cc(C(=O)O)n2CC(=O)OC`, the melting point is 181 °C.

`Cc1nn(C)c2c(Nc3ccc(S(C)(=O)=O)cc3)nc(-c3ccc(F)cc3)nc12` showed a melting point of 216 to 218 °C.

Take `COCC(C)Nc1cc(-c2ccnc(Nc3cccc(Cl)c3)n2)ccn1` (centres undefined): the melting point fell in the range of 143 to 144 °C.

The compound `CC=Cc1ccc(CCNS(=O)(=O)c2ccc(Cl)cc2)cc1` returned a melting point of 153 to 155 °C.

Turning to `CC(C(=O)NC(=O)OC1CCCCC1)(c1ccccc1)c1ccccc1`, the melting point turned out to be 126 °C.

As for `Cc1cccc(-c2n[nH]cc2-c2ccc(F)c(-c3ccc(CN4CCOCC4)cn3)c2)n1`, the melting point was 68 to 70 °C.

For `Nc1nc2ccc(C(O)C(COc3ccccc3)N3CCC(Cc4ccccc4)CC3)cc2s1` (centres undefined), the melting point was in the range of 210 to 214 °C.

For the compound `Cc1cc(O)c(N2CC(=O)NS2(=O)=O)c(F)c1`, the melting point lay in the range of 164 to 166 °C.

Consider `CNc1nc(-c2cccc(NCc3ccccc3)c2)c2cc(OC)c(OC)cc2n1`, for which the melting point lay within 146 to 148 °C.

In turn, `O=C(Nc1ccc(CN2CCCCC2)cc1)c1cccc(OCc2ccccc2)c1` gave a melting point of 137 to 138 °C.

Compound `COc1ccc(C2(C#Cc3cnc(N)nc3)CCC(O)CC2)cc1OC1CCCC1` (centres undefined) returned a melting point of 170 to 172 °C.

Regarding `CN1CCC(c2cccc3ccc(C(=O)NCCCc4ccccc4)cc23)CC1`, the melting point lay in the range of 47 to 50 °C.

`Cc1cc(C)n(C(c2ccccc2)(c2ccccc2)c2ccccc2Cl)n1` displayed a melting point of 195 to 197 °C.

Take `CCOC(=O)c1c(C)cc(-c2ccc(OC)c(OC)c2)cc1C`: the melting point lay in the range of 91 to 92 °C.

For the compound `C/C=C/C(=O)OC(COc1ccc(C(=O)c2ccccc2)c(O)c1)COc1ccc(C(=O)c2ccccc2)c(O)c1`, the melting point was in the range of 99 to 103 °C.

Regarding `O=C1CCC(N2Cc3c(OCc4cc(CN5CCOCC5)on4)cccc3C2=O)C(=O)N1` (centres undefined), the melting point is 218 to 220 °C.

As to `CCn1c(=O)c2c(ncn2CCCCC2CO2)n(CC)c1=O` (centres undefined), the melting point was 58 to 59 °C.

`CC1(C)OC(=O)Nc2ccc(-c3ccccc3Cl)cc21` returned a melting point of 181 to 182 °C.

As to `CC(C)(C)OC(=O)CN(C(=O)CNC(=O)Nc1ccc(Cl)cc1)c1ccccc1C(=O)c1ccccc1`, the melting point lay within 196 to 197 °C.

For the compound `CCCCOCCOc1ccc(-c2ccc3c(c2)C=C(C(=O)Nc2ccc(C(O)c4ccccn4)c(C)c2)CCN3C(=O)C(F)(F)F)cc1` (centres undefined), the melting point fell in the range of 122 to 125 °C.

Take `CCn1c(=O)c2[nH]c(C(C)=Cc3ccccc3)nc2n(CC)c1=O`: the melting point lay in the range of 251 to 252 °C.

For the compound `Cc1c(Cc2cccnc2)ccc2ccc(Br)cc12`, the melting point was 101 to 104 °C.

As to `O=C(NC1CCN(Cc2ccccc2)CC1)c1ccc(NCc2ccnc3ccccc23)cc1`, the melting point fell in the range of 184 to 188 °C.

As to `COc1ccsc1C1OC(=O)NC1=O` (centres undefined), the melting point lay within 156 to 158 °C.

Compound `Cc1ccccc1CC(=O)Nc1ccc(C(=O)N2Cc3cccn3Cc3ccccc32)cc1` returned a melting point of 198 to 200 °C.

Compound `C[Si](C)(C)C#Cc1ccc2c(c1)C1(c3ccccc3-c3ccccc31)c1cc(C#C[Si](C)(C)C)ccc1-2` gave a melting point of 267 to 269 °C.

`O=C(N[C@H]1CC[C@H](CCN2CCC(c3cccc4c3CCO4)CC2)CC1)C1CCC1` yielded a melting point of 197 °C.

`C=CCC1(SC(C)=O)C(C)(C)c2ccccc2C1(C)C` showed a melting point of 65 to 67 °C.

Regarding `O=C(CCc1ccccc1)N[C@H](Cc1ccc(C(F)(F)F)cc1)[C@@H](O)c1ccoc1` (racemic), the melting point fell in the range of 134 to 135 °C.

The compound `CN(C)C(=O)COc1cc(Cl)ccc1C(=O)NCCN1CCN(C(=O)OC(C)(C)C)CC1` registered a melting point of 139 to 140 °C.

Consider `CN1C(=O)c2c(n3cncc3c3[nH]c4ncccc4c23)C1=O`, for which the melting point was in the range of 304 to 307 °C.

Turning to `N#Cc1cnc2c(c1)[nH]c(=O)n2[C@H]1CC[C@H](O)CC1`, the melting point fell in the range of 274 to 275 °C.

Consider `NNc1c(F)c(F)c(C(F)(F)F)c(F)c1Cl`, for which the melting point was 91 to 92 °C.

Regarding `CC(O)c1cc2ccccc2cn1` (centres undefined), the melting point was 104 to 106 °C.

As to `NNC(=O)Cc1c(F)cccc1F`, the melting point lay within 177 to 178 °C.

Turning to `Cc1ccc(-c2cc(N)c(Cl)c(C(=O)O)n2)cc1C`, the melting point was in the range of 192 to 194 °C.

Regarding `O=C(O)CN=c1sc2ccccc2s1`, the melting point lay in the range of 195 to 200 °C.

In turn, `CC(C)(C)OC(=O)NCCNC(=O)c1noc(N)c1-c1ccccc1` showed a melting point of 144 °C.

`COc1ccc(C(=NOC(C)=O)c2cc(F)ccc2F)c(O)c1` returned a melting point of 110 to 111 °C.

`CC#CC(O)(Cn1cncn1)c1ccc(Oc2ccc(Cl)cc2)cc1Cl` (centres undefined) yielded a melting point of 137 °C.

Take `O=C1CC(c2ccccc2)Cc2[nH]c3c(c21)CCCC3` (centres undefined): the melting point lay within 257 to 259 °C.

For the compound `COC(=O)c1nc2ccc(C=O)cc2cc1C`, the melting point was in the range of 118 to 121 °C.

As for `CS(=O)(=O)c1ccc(C(CC2CCCC2)C(=O)Nc2ccncn2)cc1Br` (centres undefined), the melting point fell in the range of 75 to 80 °C.

Compound `CCCCOc1ccc(-c2ccc(C)c(C#N)c2C#N)cc1` came in with a melting point of 152 °C.

Consider `Cc1ccc2c(c1)c(-c1ccnc3c(C(F)(F)F)cccc13)c(C)n2CC(=O)O`, for which the melting point was found to be 145 °C.

On to `Cc1ccc(S(=O)(=O)OCC(=O)CC2CCC(C)CC2)cc1` (centres undefined), for which the melting point was 42 to 43.5 °C.

Turning to `CCCC1(C(O)CCCN2CCC(N3Cc4ccccc4C3=O)CC2)c2ccccc2-c2ccccc21` (centres undefined), the melting point was in the range of 75 to 78 °C.

`COc1ccc2ccc(NC(=O)c3ccccc3)nc2n1`: the melting point is 134 °C.

The compound `C=CCOc1ccc2nc(OCC=C(C)C)ccc2c1` gave a melting point of 53 to 54 °C.

On to `COCCNC(=O)CN1CCN(Cc2ccc3c(c2)NC(=O)C(C)O3)CC1` (centres undefined), for which the melting point is 111 to 142 °C.

Take `COc1ccc2cc(N3CCC4(CCN(C)CC4)CC3)ccc2c1`: the melting point lay within 122 to 125 °C.

The compound `N#Cc1nc(Cl)c(Cl)c(NN)c1Cl` registered a melting point of 178 to 181 °C.

Turning to `O=C(O)CCc1ccc(CCNC(=O)c2ccccc2)cc1`, the melting point is 164 to 165 °C.

`CCC(C(C)=CC(CNC(=O)c1cccnc1F)=NO)[N+](=O)[O-]` (centres undefined) gave a melting point of 91 to 92 °C.

`NC(=O)Cc1c[nH]c2ncccc12` came in with a melting point of 180 to 181 °C.

For the compound `COC(=O)c1ccc(-c2nc3cc(Cl)c(Cl)cc3[nH]2)cc1`, the melting point is 240 to 250 °C.

For `Cc1cccc(OC2=NS(=O)(=O)N=C(Oc3cccc(C)c3)N2C)c1`, the melting point fell in the range of 221 to 223 °C.

Take `CC(C)(CO)OCc1nn(Cc2ccccc2)c2ccccc12`: the melting point was in the range of 52 to 53 °C.

The compound `CC(=O)OC1CSC(Oc2cccc(-c3cccc(Cl)n3)c2)C(OC(C)=O)C1OC(C)=O` (centres undefined) returned a melting point of 186 to 189 °C.

`Cc1cc(Cl)cc2c(=O)oc(-c3cc(Br)nn3-c3ncccc3Cl)nc12` yielded a melting point of 203 to 205 °C.

`CC(C)c1cc2ncnn2nc1SCCCCl`: the melting point lay within 82 to 83 °C.

`NS(=O)(=O)c1c(C(=O)O)cnn1-c1cccc(Cl)n1` came in with a melting point of 179 to 182 °C.

Consider `O=C(O)CCCCCCC1=CCCC1=O`, for which the melting point was 41 to 43 °C.

`CCOC(=O)/C=C(/c1ccc(OC)cc1)c1cc(Cl)ccc1Cl` came in with a melting point of 98 to 100 °C.

On to `Cc1cccc(C=CC(=O)O)c1[N+](=O)[O-]`, for which the melting point was 230 to 235 °C.

For the compound `COc1ccc(Cl)cc1NC(=O)C1CCNCC1`, the melting point fell in the range of 124 to 126 °C.

In turn, `COC(=O)CC(NC(C)=O)c1ccccc1` (centres undefined) yielded a melting point of 58 to 67 °C.

`C=Cc1c(NCc2ccco2)nc(-c2ccc(Cl)c(OC)c2F)nc1C(=O)OC` returned a melting point of 100 to 102 °C.

As to `CC(C)(C)C(=O)COc1ccc(S(=O)(=O)c2ccccc2)cc1`, the melting point fell in the range of 105 to 108 °C.

Take `CC(C)Nc1ncc2c(n1)N(C)C(=O)C2`: the melting point was in the range of 120 to 123 °C.

Consider `O[C@H]1c2cc(OCc3ccc4cc(F)ccc4n3)ccc2OC[C@H]1Oc1cccnc1`, for which the melting point lay in the range of 163 to 164 °C.

In the case of `COC(=O)On1c(C(=O)OC)cc2c(C)ccc(C)c21`, the melting point fell in the range of 75 to 80 °C.
